Literature values in PubChem BioAssay AID1259409 (Chemical Carcinogenesis Research Information System (CCRIS), 2018).

Test system: rodent chemically induced tumor inhibition, incidence and multiplicity
Assay: CCRIS tumor inhibitor studies

CC(C)C[C@H]1C(=O)N2CCC[C@H]2[C@]2(O)O[C@](NC(=O)[C@@H]3C=C4c5cccc6[nH]c(Br)c(c56)C[C@H]4N(C)C3)(C(C)C)C(=O)N12
tumour outcome (control, treated, inhibition, significance) (Carcinogen: 7,12-DIMETHYLBENZ[A]ANTHRACENE, 57-97-6, Dose [Inhibitor]: 0.4 MG/D FROM 90 TO 150 D OF AGE BEGINNING 30 D POST CARCINOGEN TREATMENT (STUDY DURATION: 9 MO AFTER DMBA TREATMENT), Route [Inhibitor]: SUBCUTANEOUS, Species: RAT, Strain/Sex: LONG-EVANS/FEMALE, Target Tissue: Type of Lesion: MAMMARY GLAND: CARCINOMA, Dose [Carcinogen]: 20 MG ONCE AT 60 D OF AGE, Promoter: NONE USED): 20%, 38%, -90%, not significant
tumour outcome (control, treated, inhibition, significance) (Carcinogen: 7,12-DIMETHYLBENZ[A]ANTHRACENE, 57-97-6, Dose [Inhibitor]: 0.4 MG/D FROM 90 TO 150 D OF AGE BEGINNING 30 D POST CARCINOGEN TREATMENT (STUDY DURATION: 9 MO AFTER DMBA TREATMENT), Route [Inhibitor]: SUBCUTANEOUS, Species: RAT, Strain/Sex: LONG-EVANS/FEMALE, Target Tissue: Type of Lesion: MAMMARY GLAND: FIBROADENOMA, Dose [Carcinogen]: 20 MG ONCE AT 60 D OF AGE, Promoter: NONE USED): 16%, 0%, 100%, not significant
tumour outcome (control, treated, inhibition, significance) (Carcinogen: 7,12-DIMETHYLBENZ[A]ANTHRACENE, 57-97-6, Dose [Inhibitor]: 0.4 MG/D FROM 90 TO 150 D OF AGE BEGINNING 30 D POST CARCINOGEN TREATMENT (STUDY DURATION: 9 MO AFTER DMBA TREATMENT), Route [Inhibitor]: SUBCUTANEOUS, Species: RAT, Strain/Sex: SPRAGUE-DAWLEY/FEMALE, Target Tissue: Type of Lesion: MAMMARY GLAND: CARCINOMA, Dose [Carcinogen]: 5 MG ONCE AT 60 D OF AGE, Promoter: NONE USED): 85%, 52%, 39%, p<0.05
tumour outcome (control, treated, inhibition, significance) (Carcinogen: 7,12-DIMETHYLBENZ[A]ANTHRACENE, 57-97-6, Dose [Inhibitor]: 0.4 MG/D FROM 90 TO 150 D OF AGE BEGINNING 30 D POST CARCINOGEN TREATMENT (STUDY DURATION: 9 MO AFTER DMBA TREATMENT), Route [Inhibitor]: SUBCUTANEOUS, Species: RAT, Strain/Sex: SPRAGUE-DAWLEY/FEMALE, Target Tissue: Type of Lesion: MAMMARY GLAND: FIBROADENOMA, Dose [Carcinogen]: 5 MG ONCE AT 60 D OF AGE, Promoter: NONE USED): 22%, 10%, 54%, not significant
tumour outcome (control, treated, inhibition, significance) (Carcinogen: 7,12-DIMETHYLBENZ[A]ANTHRACENE, 57-97-6, Dose [Inhibitor]: 0.4 MG/D FROM 90 TO 150 D OF AGE BEGINNING 30 D POST CARCINOGEN TREATMENT (STUDY DURATION: 12 MO AFTER DMBA TREATMENT), Route [Inhibitor]: SUBCUTANEOUS, Species: RAT, Strain/Sex: SPRAGUE-DAWLEY/FEMALE, Target Tissue: Type of Lesion: MAMMARY GLAND: CARCINOMA, Dose [Carcinogen]: 1.25 MG ONCE AT 60 D OF AGE, Promoter: NONE USED): 15%, 10%, 33%, not significant
tumour outcome (control, treated, inhibition, significance) (Carcinogen: 7,12-DIMETHYLBENZ[A]ANTHRACENE, 57-97-6, Dose [Inhibitor]: 0.4 MG/D FROM 90 TO 150 D OF AGE BEGINNING 30 D POST CARCINOGEN TREATMENT (STUDY DURATION: 12 MO AFTER DMBA TREATMENT), Route [Inhibitor]: SUBCUTANEOUS, Species: RAT, Strain/Sex: SPRAGUE-DAWLEY/FEMALE, Target Tissue: Type of Lesion: MAMMARY GLAND: FIBROADENOMA, Dose [Carcinogen]: 1.25 MG ONCE AT 60 D OF AGE, Promoter: NONE USED): 73%, 65%, 11%, not significant
tumour outcome (control, treated, inhibition, significance) (Carcinogen: 7,12-DIMETHYLBENZ[A]ANTHRACENE, 57-97-6, Dose [Inhibitor]: 0.4 MG/D FROM 90 TO 150 D OF AGE BEGINNING POST CARCINOGEN TREATMENT (STUDY DURATION: 6 MO AFTER DMBA TREATMENT), Route [Inhibitor]: SUBCUTANEOUS, Species: RAT, Strain/Sex: SPRAGUE-DAWLEY/FEMALE, Target Tissue: Type of Lesion: MAMMARY GLAND: CARCINOMA, Dose [Carcinogen]: 20 MG ONCE AT 60 D OF AGE, Promoter: NONE USED): 96%, 87%, 9%, p<0.05
tumour outcome (control, treated, inhibition, significance) (Carcinogen: 7,12-DIMETHYLBENZ[A]ANTHRACENE, 57-97-6, Dose [Inhibitor]: 0.4 MG/D FROM 93 TO 160 D OF AGE BEGINNING 30 D POST CARCINOGEN TREATMENT (STUDY DURATION: 9 MO AFTER DMBA TREATMENT), Route [Inhibitor]: SUBCUTANEOUS, Species: RAT, Strain/Sex: LEWIS/FEMALE, Target Tissue: Type of Lesion: MAMMARY GLAND: CARCINOMA, Dose [Carcinogen]: 10 MG AT 56 AND 63 D OF AGE, Promoter: NONE USED): 94%, 55%, 41%, p<0.05
tumour outcome (control, treated, inhibition, significance) (Carcinogen: 7,12-DIMETHYLBENZ[A]ANTHRACENE, 57-97-6, Dose [Inhibitor]: 6 MG/KG 6/WK FOR 80 OR 100 D BEGINNING 1 D POST CARCINOGEN DOSE (STUDY DURATION: 245 D), Route [Inhibitor]: INTRAPERITONEAL, Species: RAT, Strain/Sex: CFE/FEMALE, Target Tissue: Type of Lesion: MAMMARY GLAND: NOT SPECIFIED, Dose [Carcinogen]: 2.5 MG 1/D FOR 2 D, Promoter: NONE USED): 17/18 (94%), 16/19 (84%), 11%, not significant
tumour outcome (control, treated, inhibition, significance) (Carcinogen: 17-BETA-ESTRADIOL, 50-28-2, Dose [Inhibitor]: 0.1 MG, DAILY WITH CARCINOGEN AT 1 MO OF AGE FOR 22 MO (STUDY DURATION: 22 MO), Route [Inhibitor]: SUBCUTANEOUS, Species: MOUSE, Strain/Sex: C3H/FEMALE, Target Tissue: Type of Lesion: MAMMARY GLAND: TUMOR, Dose [Carcinogen]: 0.5 MG/L IN DRINKING WATER DAILY CONCURRENTLY WITH INHIBITOR FOR 22 MO, Promoter: NONE USED): 27/99 (27%), 9/100 (9%), 67%, p<0.05
tumour outcome (control, treated, inhibition, significance) (Carcinogen: 17BETA-ESTRADIOL, 50-28-2, Dose [Inhibitor]: 0.1 MG 1/D FOR 19 MO BEGINNING CONCURRENTLY WITH CARCINOGEN DOSE (STUDY DURATION: 19 MO), Route [Inhibitor]: SUBCUTANEOUS, Species: MOUSE, Strain/Sex: C3H/FEMALE, Target Tissue: Type of Lesion: MAMMARY GLAND: CARCINOMA, Dose [Carcinogen]: 0.5 MG/L IN DRINKING WATER BEGINNING AT 30 D OF AGE FOR 19 MO, Promoter: NONE USED): 27/99 (27%), 9/100 (9%), 67%, p<0.001
tumour outcome (control, treated, inhibition, significance) (Carcinogen: AZOXYMETHANE, 25843-45-2, Dose [Inhibitor]: 0, 2 MG/KG BW SUSPENDED IN 1 ML/MG OLIVE OIL 1/2 D FOR STUDY DURATION (STUDY DURATION: 30 WK), Route [Inhibitor]: SUBCUTANEOUS, Species: RAT, Strain/Sex: WISTAR/MALE, Target Tissue: Type of Lesion: COLON: TUMOR, Dose [Carcinogen]: 7.4 MG/KG IN 0.9% NACL 1/WK FOR 10 WK): 9/17 (53%), 8/20 (40%), 25%, not significant
tumour outcome (control, treated, inhibition, significance) (Carcinogen: DIETHYLSTILBESTROL, 56-53-1, Dose [Inhibitor]: 0.5 MG 5/WK FOR 9 MO CONCURRENTLY WITH CARCINOGEN DOSE (90 MG TOTAL DOSE) (STUDY DURATION: 9 MO), Route [Inhibitor]: SUBCUTANEOUS, Species: HAMSTER, Strain/Sex: SYRIAN/MALE, Target Tissue: Type of Lesion: KIDNEY: EPITHELIAL NEOPLASM, Dose [Carcinogen]: 0.6 MG 3/WK FOR 9 MO (65 MG TOTAL DOSE), Promoter: NONE USED): 10/12 (83%), 7/12 (58%), 30%, not calculated
tumour outcome (control, treated, inhibition, significance) (Carcinogen: DIMETHYLBENZ[A]ANTHRACENE, 57-97-6, Dose [Inhibitor]: 1 MG ONCE ON D 2 OF DIESTRUS AND ONCE AT PROESTRUS (STUDY DURATION: 26 WK), Route [Inhibitor]: INTRAPERITONEAL, Species: RAT, Strain/Sex: SPRAGUE-DAWLEY/FEMALE, Target Tissue: Type of Lesion: MAMMARY GLAND: NOT SPECIFIED, Dose [Carcinogen]: 5 MG ONCE AT 50 D OF AGE 30 HR POST 1ST AGENT DOSE, Promoter: NONE USED): 97%, 84%, 13%, not significant
